Experimental data: patent US9193719B2, “1,2,4-triazol-5-ones and analogs exhibiting anti-cancer and anti-proliferative activities” (Deciphera Pharmaceuticals, LLC, priority 2013, dated 2015)

Columns and labels:
[1] = tested on: M-NFS-60 cells; experiment: M-NFS-60 cell proliferation assay (resazurin); assay type: cell-based; conditions: 67 h incubation
Method in brief: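 Cells kept in medium containing 20 ng/mL mouse recombinant M-CSF. Fluorescence was read at ex 540/em 600 nm, and IC50 was fitted from percent inhibition across a range of inhibitor concentrations.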

[2] = tested on: phospho-FMS in THP-1 cells; experiment: Phospho-FMS ELISA assay in THP-1 cells; assay type: cell-based; conditions: Homo sapiens, 4 h compound, M-CSF stimulation 5 min, read-out: pFMS inhibition in THP-1 cells
Method: THP-1 cells (catalog #TIB-202) were obtained from the ATCC. Briefly, cells were grown in RPMI 1640 supplemented with 10% characterized fetal bovine serum, 1% sodium pyruvate, 1% Penicillin-Streptomycin-Glutamine (PSG) and 55 uM 2-mercaptoethanol (Invitrogen, Carlsbad, Calif.) at 37 degrees Celsius, 5% CO2, 95% humidity. Cells were allowed to expand until reaching 70-95% confluency at which point they were subcultured or harvested for assay use.
A serial dilution of test compound was diluted 1:100 in assay medium (RPMI 1640 supplemented with 10% characterized fetal bovine serum) in a 96 well black clear bottom plate (Corning, Corning, N.Y.). In a separate 96 well black clear bottom plate, one hundred and fifty thousand THP-1 cells were added per well in 100 μL in assay medium. Fifty microliters of diluted compound was then added to the cells. Plates were incubated for 4 hours at 37 degrees Celsius, 5% CO2, 95% humidity. At the end of the incubation period, cells were stimulated with 50 μL of a 100 nM solution of recombinant human M-CSF (catalog #216-MC, R & D Systems, Minneapolis, Minn.) in assay medium and the plate was incubated for 5 minutes at 37 degrees Celsius, 5% CO2, 95% humidity. Lysates were prepared and used to perform the phospho-FMS ELISA as described by the manufacturer (catalog #DYC3268, R & D Systems, Minneapolis, Minn.). GraphPad Prism was used to calculate IC50 values obtained from data generated from the ELISA assay.

[3] = tested on: MDA-MB-231-luc-D3H2LN human breast carcinoma xenograft; experiment: MDA-MB-231 xenograft study; assay type: in vivo, mouse; conditions: orally dosed at 15 mpk twice daily
Method: MDA-MB-231 Xenograft Study
To evaluate the in vivo anti-cancer activity compounds of Formula I, a MDA-MB-231-luc-D3H2LN human breast carcinoma xenograft was employed. Briefly, MDA-MB-231-luc-D3H2LN cells were obtained from Xenogen and expanded in Minimal Essential Media (MEM) with EBSS which was modified with 1% L-glutamine and supplemented with 10% FBS, 1% PSG, 1% non-essential amino acids, and 1% sodium pyruvate. The growth environment was maintained in an incubator with a 5% CO2 atmosphere at 37° C. Cells were harvested and re-suspended using 50% serum-free media and 50% Matrigel® to generate a stock concentration of 5×10^6 cells/mL.
Six to 7 week old female C.B-17/IcrHsd-PrkdcscidLystbg mice were injected with 200 μL of cell suspension subcutaneously, just below the right axilla. All procedures carried out in this experiment were conducted in compliance with all the laws, regulations and guidelines of the National Institutes of Health (NIH). Treatment began when the mean tumor burden is approximately 150 mg. All mice were dosed with test compound by oral gavage. Body weights and tumor measurements were recorded three times weekly. […] Images were analyzed using Living Image (Xenogen, Alameda, Calif.) software. […]

| IC50 [2] [nM] | SMILES | IC50 [1] [nM] | tumor growth inhibition [3] [%] |
| --- | --- | --- | --- |
| 10 to 100 | Cc1nc(-n2nc(C(C)(C)C)[nH]c2=O)ccc1Oc1ccnc(-c2cnn(C)c2)c1 [Example 7, 3-(tert-butyl)-1-(6-methyl-5-((2-(1-methyl-1H-pyrazol-4-yl)pyridin-4-yl)oxy)pyridin-2-yl)-1H-1,2,4-triazol-5(4H)-one] | 10 to 100 | 39 |
| ≤ 10 | Cc1nc(-n2nc(CC(C)C)[nH]c2=O)ccc1Oc1ccnc(-c2cnn(C)c2)c1 [Example 22, 3-isobutyl-1-(6-methyl-5-((2-(1-methyl-1H-pyrazol-4-yl)pyridin-4-yl)oxy)pyridin-2-yl)-1H-1,2,4-triazol-5(4H)-one] | ≤ 10 |  |
| 10 to 100 | Cc1nc(-n2nc(C3(C)CC3)[nH]c2=O)ccc1Oc1ccnc(-c2cnn(C)c2)c1 [Example 27, 1-(6-methyl-5-((2-(1-methyl-1H-pyrazol-4-yl)pyridin-4-yl)oxy)pyridin-2-yl)-3-(1-methylcyclopropyl)-1H-1,2,4-triazol-5(4H)-one] | 10 to 100 |  |
| 10 to 100 | Cc1nc(-n2nc(C(C)(C)C)[nH]c2=O)ccc1Oc1cc(-c2cnn(C)c2)ncn1 [Example 47, 3-(tert-butyl)-1-(6-methyl-5-((6-(1-methyl-1H-pyrazol-4-yl)pyrimidin-4-yl)oxy)pyridin-2-yl)-1H-1,2,4-triazol-5(4H)-one] | 100 to 1000 |  |
